≈ marks a conversion by molar mass, not a printed value.
Legend:
[1] = molecular target: T1, Cystic fibrosis transmembrane conductance regulator (Homo sapiens, UniProt P13569, F508DEL); assay: Potentiation of CFTR F508del mutant (unknown origin) expressed in CHO cells assessed as chloride transport by measuring membrane potential preincubated for 5 mins followed by forskolin addition by FLIPR assay; assay type: cell-based
[2] = molecular target: T1, Cystic fibrosis transmembrane conductance regulator; assay: Potentiation of CFTR F508del mutant (unknown origin) expressed in CHO cells assessed as chloride transport by measuring membrane potential incubated for 5 to 30 mins in presence of forskolin by Quattro assay; assay type: cell-based
[3] = molecular target: T1, Cystic fibrosis transmembrane conductance regulator; assay: Potentiation of CFTR F508del mutant (unknown origin) expressed in FRT cells assessed as chloride transport by measuring membrane potential in presence of forskolin; assay type: cell-based
[4] = molecular target: T2, Cystic fibrosis transmembrane conductance regulator (Homo sapiens, UniProt P13569); assay: Potentiation of wild-type CFTR (unknown origin) expressed in FRT cells assessed as chloride transport by measuring membrane potential in presence of forskolin; assay type: cell-based
T2 sequence (P13569 whole entry): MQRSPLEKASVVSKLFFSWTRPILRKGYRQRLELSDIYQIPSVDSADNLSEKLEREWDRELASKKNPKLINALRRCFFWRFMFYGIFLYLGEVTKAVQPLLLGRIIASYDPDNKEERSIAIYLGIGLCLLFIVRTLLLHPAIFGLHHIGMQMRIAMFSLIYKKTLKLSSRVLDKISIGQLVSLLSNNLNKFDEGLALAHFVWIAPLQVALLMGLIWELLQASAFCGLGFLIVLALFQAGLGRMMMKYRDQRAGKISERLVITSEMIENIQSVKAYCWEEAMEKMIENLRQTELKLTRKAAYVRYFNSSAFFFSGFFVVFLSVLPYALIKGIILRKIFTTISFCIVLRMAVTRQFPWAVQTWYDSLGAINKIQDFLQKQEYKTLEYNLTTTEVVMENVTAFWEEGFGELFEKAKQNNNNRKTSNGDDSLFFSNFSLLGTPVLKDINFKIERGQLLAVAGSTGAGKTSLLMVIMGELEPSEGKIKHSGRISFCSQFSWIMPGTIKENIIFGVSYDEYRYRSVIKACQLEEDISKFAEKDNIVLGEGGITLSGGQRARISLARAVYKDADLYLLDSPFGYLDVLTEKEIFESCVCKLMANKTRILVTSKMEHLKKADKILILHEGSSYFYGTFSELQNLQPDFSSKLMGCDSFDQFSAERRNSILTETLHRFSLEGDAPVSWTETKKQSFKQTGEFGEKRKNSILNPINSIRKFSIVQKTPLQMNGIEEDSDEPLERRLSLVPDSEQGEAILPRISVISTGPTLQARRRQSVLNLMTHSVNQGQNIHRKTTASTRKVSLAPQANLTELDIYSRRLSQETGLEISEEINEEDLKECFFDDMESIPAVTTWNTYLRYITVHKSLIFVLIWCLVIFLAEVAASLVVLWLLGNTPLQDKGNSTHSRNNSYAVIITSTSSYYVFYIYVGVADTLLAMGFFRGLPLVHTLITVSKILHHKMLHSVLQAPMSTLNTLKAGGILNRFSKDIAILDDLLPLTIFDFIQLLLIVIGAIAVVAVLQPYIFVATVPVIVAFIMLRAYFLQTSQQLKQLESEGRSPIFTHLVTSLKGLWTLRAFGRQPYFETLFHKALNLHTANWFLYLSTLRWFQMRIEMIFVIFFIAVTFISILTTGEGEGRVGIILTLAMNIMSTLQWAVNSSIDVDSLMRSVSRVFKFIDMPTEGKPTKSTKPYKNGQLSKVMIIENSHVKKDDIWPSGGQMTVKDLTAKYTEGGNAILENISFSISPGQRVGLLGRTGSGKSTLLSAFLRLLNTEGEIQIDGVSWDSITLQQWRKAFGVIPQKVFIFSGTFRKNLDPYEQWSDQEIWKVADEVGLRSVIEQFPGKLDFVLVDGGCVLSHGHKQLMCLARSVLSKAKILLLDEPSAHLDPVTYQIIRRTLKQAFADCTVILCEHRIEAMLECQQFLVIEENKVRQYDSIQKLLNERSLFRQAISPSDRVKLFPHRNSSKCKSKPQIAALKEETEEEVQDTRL

[5] = Solubility of the compound at pH 6.8; assay type: physicochemical; conditions: buffer
[6] = tested on: Cystic fibrosis transmembrane conductance regulator (Homo sapiens), P13569 [F508del]; assay: Potentiation of CFTR F508del mutant (unknown origin) expressed in CHO cells assessed as chloride transport by measuring membrane potential incubated for 5 to 30 mins in presence of forskolin by Quattro assay relative to PG-01; assay type: cell-based; set-up: concentration or dose not given beside the values; conditions: filed as activator, time 5-30 min
Chain of Cystic fibrosis transmembrane conductance regulator (Homo sapiens), P13569 [F508del] (P13569 as listed by the source): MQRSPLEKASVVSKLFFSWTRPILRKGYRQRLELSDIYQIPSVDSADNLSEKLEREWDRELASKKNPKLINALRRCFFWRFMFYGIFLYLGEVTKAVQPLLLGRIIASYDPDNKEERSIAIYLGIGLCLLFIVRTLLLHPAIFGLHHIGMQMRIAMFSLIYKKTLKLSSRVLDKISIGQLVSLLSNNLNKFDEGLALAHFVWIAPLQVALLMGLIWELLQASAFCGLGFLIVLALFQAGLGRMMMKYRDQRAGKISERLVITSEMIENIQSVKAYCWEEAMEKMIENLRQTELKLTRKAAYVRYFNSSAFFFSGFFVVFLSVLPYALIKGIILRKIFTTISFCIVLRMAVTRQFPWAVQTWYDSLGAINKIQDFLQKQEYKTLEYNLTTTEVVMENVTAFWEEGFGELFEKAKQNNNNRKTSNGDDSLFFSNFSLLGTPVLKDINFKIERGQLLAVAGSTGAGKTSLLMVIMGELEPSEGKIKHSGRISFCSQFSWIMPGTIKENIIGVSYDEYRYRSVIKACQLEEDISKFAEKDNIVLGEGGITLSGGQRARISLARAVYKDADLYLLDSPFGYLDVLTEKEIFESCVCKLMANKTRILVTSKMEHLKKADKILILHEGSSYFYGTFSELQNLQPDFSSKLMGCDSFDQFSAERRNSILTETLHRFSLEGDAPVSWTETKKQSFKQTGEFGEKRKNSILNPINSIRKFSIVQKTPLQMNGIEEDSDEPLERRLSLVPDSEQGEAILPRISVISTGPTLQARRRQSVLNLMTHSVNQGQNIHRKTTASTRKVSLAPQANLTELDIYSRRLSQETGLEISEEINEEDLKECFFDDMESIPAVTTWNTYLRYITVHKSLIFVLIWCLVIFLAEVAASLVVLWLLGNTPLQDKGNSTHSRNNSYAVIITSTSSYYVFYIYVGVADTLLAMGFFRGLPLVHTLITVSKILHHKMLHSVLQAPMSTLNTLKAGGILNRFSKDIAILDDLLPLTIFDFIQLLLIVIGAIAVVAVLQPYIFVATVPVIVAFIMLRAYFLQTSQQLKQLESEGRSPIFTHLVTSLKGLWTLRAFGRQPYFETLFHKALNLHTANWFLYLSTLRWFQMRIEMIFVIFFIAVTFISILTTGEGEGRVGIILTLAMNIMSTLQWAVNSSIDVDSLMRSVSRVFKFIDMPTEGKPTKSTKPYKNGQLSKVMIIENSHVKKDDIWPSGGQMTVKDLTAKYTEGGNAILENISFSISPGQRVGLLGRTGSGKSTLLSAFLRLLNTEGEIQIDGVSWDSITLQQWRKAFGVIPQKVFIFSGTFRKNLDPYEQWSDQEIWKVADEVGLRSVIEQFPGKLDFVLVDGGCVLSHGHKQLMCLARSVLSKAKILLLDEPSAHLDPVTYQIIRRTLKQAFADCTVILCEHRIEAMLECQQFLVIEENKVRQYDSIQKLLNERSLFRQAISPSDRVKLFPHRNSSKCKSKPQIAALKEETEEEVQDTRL

[7] = Plasma Protein binding in human incubated for 4 hrs by equilibrium dialysis method; assay type: ADME, cell-free
[8] = Plasma protein binding in Beagle dog at 5 uM incubated for 4 hrs by equilibrium dialysis method; assay type: ADME, cell-free, Canis lupus familiaris; conditions: read-out: PPB (converted)
[9] = Plasma protein binding in cynomolgus monkey at 5 uM incubated for 4 hrs by equilibrium dialysis method; assay type: ADME, cell-free, Macaca fascicularis; conditions: read-out: PPB (converted)
[10] = Plasma Protein binding in Sprague-Dawley rat at 5 uM incubated for 4 hrs by rapid equilibrium dialysis; assay type: ADME, cell-free; conditions: read-out: PPB (converted)
[11] = Oral bioavailability in Sprague-Dawley rat at 3 mg/kg measured upto 48 hrs by LC-MS/MS analysis; assay type: ADME, organism-based; conditions: in vivo
[12] = Cmax in Sprague-Dawley rat at 3 mg/kg, po and 1 mg/kg, iv measured upto 48 hrs by LC-MS/MS analysis; assay type: ADME, organism-based; set-up: dose 3 mg/kg, time <=48; conditions: in vivo
[13] = Unbound Cmax in Sprague-Dawley rat at 3 mg/kg, po and 1 mg/kg, iv measured upto 48 hrs by LC-MS/MS analysis; assay type: ADME, organism-based; conditions: in vivo
[14] = Volume of distribution in Sprague-Dawley rat at 3 mg/kg, po and 1 mg/kg, iv measured upto 48 hrs by LC-MS/MS analysis; assay type: ADME, organism-based; conditions: in vivo
[15] = Mean residence time in Sprague-Dawley rat at 3 mg/kg, po and 1 mg/kg, iv measured upto 48 hrs by LC-MS/MS analysis; assay type: ADME, organism-based; conditions: in vivo
[16] = Clearance in Sprague-Dawley rat at 3 mg/kg, po and 1 mg/kg, iv measured upto 48 hrs by LC MS/MS analysis; assay type: ADME, organism-based; conditions: in vivo
[17] = molecular target: Cystic fibrosis transmembrane conductance regulator (Homo sapiens, UniProt P13569, G551D); assay: Potentiation of CFTR G551D mutant (unknown origin) expressed in FRT cells assessed as chloride transport by measuring membrane potential in presence of forskolin; assay type: cell-based
Chain of Cystic fibrosis transmembrane conductance regulator (Homo sapiens, UniProt P13569, G551D) (P13569 whole entry G551D): as the sequence (P13569 whole entry) above, with G551D counted along it

[18] = molecular target: T1, Cystic fibrosis transmembrane conductance regulator; assay: Potentiation of CFTR F508 deletion mutant (unknown origin) expressed in HBE cells assessed as change in short circuit current in presence of forskolin and amiloride; assay type: cell-based
[19] = molecular target: T2, Cystic fibrosis transmembrane conductance regulator; assay: Potentiation of wild type CFTR (unknown origin) expressed in HBE cells assessed as change in short circuit current in presence of forskolin and amiloride; assay type: cell-based

T1 sequence (P13569 as listed by the source): as the sequence (P13569 as listed by the source) above

Structure (SMILES): CC(C)c1ccc(NC(=O)C(c2ccccc2)N(C)C(=O)Cc2c[nH]c3ccccc23)cc1 (centres undefined)
- EC50 [1]: 390 nM
- EC50 [2]: 1250 nM
- EC50 [3]: 260 nM
- EC50 [4]: 990 nM

Structure (SMILES): COC(=O)c1cc(I)c(C(F)(F)F)cc1N
- solubility [5]: 2 µg/mL (≈ 5.8 µM)
- EC50 [2]: 362 nM
- Activity [6]: 104%

Structure (SMILES): Nc1cc(C(F)(F)F)c(Br)nc1C(=O)NC[C@H](O)C(F)(F)F
- solubility [5]: 290 µg/mL (≈ 732 µM)
- EC50 [2]: 23 nM
- Activity [6]: 102%

Structure (SMILES): COC(=O)c1ccccc1N [METHYL ANTHRANILATE]
- EC50 [2]: 30000 nM

Structure (SMILES): CNc1nc(C(=O)NCC(C)(O)C(F)(F)F)c(N)cc1C(F)(F)F (stereo in doubt; 30a)
- Activity [6]: 91%

Structure (SMILES): COc1nc(C(=O)NC[14C](C)(O)C(F)(F)F)c(N)cc1C(F)(F)F (centres undefined)
- fraction unbound at 4 h ([7]; read-out: PPB (converted)): 0.077
- fraction unbound at 4 h, 5 µM [8]: 0.052
- fraction unbound at 4 h, 5 µM [9]: 0.12

Structure (SMILES): COC(=O)c1nc(-c2ccco2)c(C(F)(F)F)cc1N
- solubility [5]: 11 µg/mL (≈ 38.4 µM)
- EC50 [2]: 5310 nM
- Activity [6]: 72%

Structure (SMILES): COC(=O)c1cc(C2CCCO2)c(C(F)(F)F)cc1N (racemic)
- solubility [5]: 6 µg/mL (≈ 20.7 µM)
- EC50 [2]: 462 nM
- Activity [6]: 90%

Structure (SMILES): Nc1cc(C(F)(F)F)c(-c2ccco2)cc1C(=O)O
- EC50 [2]: 5830 nM
- Activity [6]: 63%

Structure (SMILES): COC(=O)c1cc(-c2cccnc2)c(C(F)(F)F)cc1N
- solubility [5]: 56 µg/mL (≈ 189 µM)
- EC50 [2]: 329 nM
- Activity [6]: 100%

Structure (SMILES): C[C@](O)(CNC(=O)c1nc(C(F)(F)F)c(C(F)(F)F)cc1N)C(F)(F)F
- solubility [5]: 82 µg/mL (≈ 205 µM)
- fraction unbound at 4 h, 5 µM [10]: 0.019
- bioavailability [11]: 75%
- Cmax [12]: 595 nM
- fCmax [13]: 11 nM
- Vd [14]: 6.4 L/kg
- MRT [15]: 7.2 h
- PPB ([7]; 4 h): 98.6%
- EC50 [2]: 9 nM
- Activity [6]: 113%
- clearance [16]: 15 mL/min/kg

Structure (SMILES): CCc1nc(C(=O)NCC(C)(O)C(F)(F)F)c(N)cc1C(F)(F)F (stereo in doubt; 28a)
- solubility [5]: 91 µg/mL (≈ 253 µM)
- EC50 [2]: 8 nM

Structure (SMILES): CNc1nc(C(=O)NCC(C)(O)C(F)(F)F)c(N)cc1C(F)(F)F (stereo in doubt; 30b)
- Activity [6]: 95%

Structure (SMILES): CNC(=O)c1cc(-c2ccco2)c(C(F)(F)F)cc1N
- solubility [5]: 13 µg/mL (≈ 45.7 µM)
- EC50 [2]: 1860 nM
- Activity [6]: 83%

Structure (SMILES): CC(C)(C)c1cc(C(C)(C)C)c(NC(=O)c2c[nH]c3ccccc3c2=O)cc1O [IVACAFTOR]
- EC50 [3]: 49 nM
- EC50 [4]: 70 nM
- EC50 [17]: 131 nM
- EC50 [18]: 68 nM
- EC50 [19]: 34 nM

Structure (SMILES): CN(C)c1nc(C(=O)NCC(C)(O)C(F)(F)F)c(N)cc1C(F)(F)F (stereo in doubt; 31b)
- EC50 [2]: 46 nM

Structure (SMILES): C[C@@](O)(CNC(=O)c1nc(Br)c(C(F)(F)F)cc1N)C(F)(F)F
- solubility [5]: 16 µg/mL (≈ 39 µM)
- EC50 [2]: 30 nM
- Activity [6]: 91%

Structure (SMILES): COC(=O)c1cc(-c2ncco2)c(C(F)(F)F)cc1N
- solubility [5]: 36 µg/mL (≈ 126 µM)
- EC50 [2]: 240 nM
- Activity [6]: 92%

Structure (SMILES): Nc1cc(C(F)(F)F)c(Br)nc1C(=O)NCC(O)(C(F)(F)F)C(F)(F)F
- solubility [5]: 3 µg/mL (≈ 6.46 µM)
- EC50 [2]: 10 nM
- Activity [6]: 117%

Structure (SMILES): CN(C)c1nc(C(=O)NCC(C)(O)C(F)(F)F)c(N)cc1C(F)(F)F (stereo in doubt; 31a)
- Activity [6]: 89%

— ChEMBL document CHEMBL5036320, “Discovery of Icenticaftor (QBW251), a Cystic Fibrosis Transmembrane Conductance Regulator Potentiator with Clinical Efficacy in Cystic Fibrosis and Chronic Obstructive Pulmonary Disease” (J Med Chem, 2021)
